Assay results from patent publication US9884813B1, “Pharmaceutically acceptable salts of B-guanidinopropionic acid with improved properties and uses thereof” (Rgenix, Inc., priority 2017, dated 2018).
“Also recorded” adds a separate entry of the source.

What was measured:
Type in all cases: physicochemical
[1] = Dynamic vapor sorption (DVS) with XRPD of the post-DVS sample; settings: for solid form by XRPD after the DVS experiment: post DVS sample
Description: Samples were analyzed using an Aquadyne DVS-2 gravimetric water sorption analyzer. The relative humidity was adjusted between 2-95% and the weight of the sample was continuously monitored and recorded.
[…]: β-GPA maleate (1:1) Form II, β-GPA fumarate (1:1), β-GPA maleate (2:1), β-GPA succinate (2:1) and β-GPA oxalate (1:1) were analyzed by DVS experiment followed by XRPD analysis of the sample at the end of the experiment.
Sample 2162-64-1 was analyzed by DVS in triplicate and the post DVS samples were characterized by XRPD to identify the form at the end of the experiment.

Bulk and tapped density = assay: Bulk and tapped density
Description: The bulk density of β-GPA oxalate (Pattern 18 B), succinate (Pattern 15A), and fumarate (Pattern 7A) were determined by pouring in a known amount of salt (g) into a measuring cylinder. The volume (Vi) occupied by the salt was recorded and the bulk density (ρB) was determined using equation 1. ρB=g/Vi (1)
The tapped densities of the salts were determined using a Tap density analyzer. A known amount of salt was poured (g) into a measuring cylinder and the initial volume was recorded and tapped using a Tap density analyzer. The final volume (Vf) after tapping was recorded and the tapped density (ρT) was calculated by using equation 2. ρT=g/Vf (2)

[2] = Carr's index and Hausner ratio (predicted flowability); settings: for Carr's index / Hausner ratio: calculated from bulk and tapped volumes; for Flow character: predicted, scale of Table 6 (Carr's index)
Source text: The flow properties of β-GPA are sub-optimal. The bulk density is 0.389 g/cc and the tapped density is 0.627 g/cc. These measurements can be used to calculate the Carr's index and Hausner ratio for a substance. The Carr's index and Hausner ratio are indicators of flowability of a powder. As known in the art, e.g., as described in Carr R. L. Chem. Eng. 1965, 72, 163-168, the relationship to flowability of a powder to the Carr's index and Hausner ratio is based on the scale shown in Table 6 below.
Carr's index or Carr's compressibility index (C) is an indication of the compressibility of a powder. It can be calculated using the equation below: Carr's index (C)=100(Vi−Vf)/Vi (3) A Carr's index greater than 25 is considered to be an indication of poor flowability while a value below 15 is an indication of good flowability.
The Hausner ratio is a number that is correlated to the flowability of a powder or granular material. It is calculated by using the equation below: Hausner ratio=Vi/Vf (4)

[3] = Flowability measurement using Hanson Flodex unit
Source text: Method: A cylindrical vessel is secured to the stand and above that a funnel is also secured such that the bottom of the funnel is close to the vessel. A powder load of ≈50-60 g is then poured through the funnel into the middle of the cylinder. The lever device is pulled to open the hole in the disk quickly and without vibration. If a powder slowly flows through the small-diameter holes, leaving a cavity shaped like an upside-down, truncated cone, the test is considered positive. If a powder flocculates in bulk and falls abruptly, forming a cylindrical cavity, the test is considered negative. […] If the experiment is negative, the powder is tested again with a disk having a larger hole.

[4] = Solid form stability of 2:1 β-GPA fumarate at various temperature/humidity conditions (XRPD); settings: for XRPD: a week
Description: The solid form stability of β-GPA fumarate was studied at various temperature/humidity conditions as listed in Table 23 for a week using saturated salt solution chambers. The samples were analyzed by XRPD after a week.

[5] = Gravimetric solubility of 2:1 β-GPA fumarate in solvents
Description: Solubility of β-GPA fumarate was measured gravimetrically in fifteen different solvents and solvent mixtures at 15 and 45° C. About 100 mg of the compound was dispensed in ten volumes (1 mL) of the solvent/solvent mixture and slurried for 48 hours. Table 24 represents the solubility of β-GPA fumarate in different solvents. After 48 hours the vials were centrifuged. The supernatant was collected and left for slow evaporation under vacuum at 45° C. and solubility was determined. The solids obtained after centrifugation and evaporation were analyzed by XRPD.

[6] = Temperature cycling experiments of 2:1 β-GPA fumarate
Description: The following (Table 26) experiments were performed to isolate possible polymorphic forms of 2:1 β-GPA fumarate.

[7] = Carr's index and Hausner ratio (predicted flowability); settings: Table 18, scale of Table 17
[8] = Solid form stability under stressed conditions (wet, dry, high humidity) by XRPD
Description: The solid form stability of each salt was studied by XRPD under stressed conditions: wet, dry (45° C. under vacuum) and high humidity (RH >95%).

[9] = Solid form stability of salts in different solvents (slurry, XRPD); settings: 48 hours, room temperature
Description: Three salts were studied for solid form stability in water (disproportionation test), methanol, acetonitrile, and acetone:water (9:1) for 48 hours at room temperature.

[10] = Solid form stability at 40° C. and 75% humidity; settings: 40° C. and 75% RH for seven days
Description: Solid form stability studies of β-GPA fumarate, succinate, and oxalate were carried out at 40° C. and 75% RH for seven days. Around 30 mg of the salts were placed in 4 mL vials which were placed in a saturated solution of sodium chloride (2 mL) with lids closed at 40° C. […]

## N=C(N)NCCC(=O)O.N=C(N)NCCC(=O)O.O=C(O)/C=C/C(=O)O [β-GPA fumarate (2:1)]
[1]
  moisture uptake during the DVS experiment: less than 0.1%
[1]; listed as 2:1 fumarate salt
  solid form by XRPD after the DVS experiment: did not exhibit any dissociation of the salt
[1]; listed as 2162-64-1
  solid form by XRPD after the DVS experiment: identical to β-GPA fumarate (Pattern 7A)
Bulk and tapped density
  Bulk density: 0.576 g/cc
  Tapped density: 0.613 g/cc
[2]
  Carr's index: 5.9
  Hausner ratio: 1.063
  Flow character: Excellent (1-10)
[3]; Disc pore size 4 mm
  Did solid pass?: No
[3]; Disc pore size 5 mm
  Did solid pass?: Yes
[3]; Disc pore size 6 mm
  Did solid pass?: Yes
[3]; Disc pore size 12 mm
  Did solid pass?: Yes
[4]; 20° C., 43% relative humidity
  XRPD: Pattern 7A
[4]; 20° C., 59% relative humidity
  XRPD: Pattern 7A
[4]; 20° C., 73% relative humidity
  XRPD: Pattern 7A
[4]; 20° C., >95% relative humidity
  XRPD: Pattern 7A
[4]; 40° C., 82% relative humidity
  XRPD: Pattern 7A
[4]; 60° C., 50% relative humidity
  XRPD: Pattern 7A
[4]; 60° C., 80% relative humidity
  XRPD: Pattern 7A
[4]; RH >95% at 20° C.
  solid form stability: stable
[4]; RH >95% at room temperature, 48 hours
  XRPD pattern: retain its original XRPD pattern (Pattern 7A)
[5]; Acetone, 15° C.
  Solubility: <1000 µg/mL
[5]; Acetone, 45° C.
  Solubility: <1000 µg/mL
[5]; Acetone:H2O (9:1), 15° C.
  Solubility: 2500 µg/mL
[5]; Acetone:H2O (9:1), 45° C.
  Solubility: 4100 µg/mL
[5]; DCM, 15° C.
  Solubility: <1000 µg/mL
[5]; DCM, 45° C.
  Solubility: 500 µg/mL
[5]; EtOAc, 15° C.
  Solubility: <1000 µg/mL
[5]; EtOAc, 45° C.
  Solubility: <1000 µg/mL
[5]; EtOH, 15° C.
  Solubility: <1000 µg/mL
[5]; EtOH, 45° C.
  Solubility: <1000 µg/mL
[5]; H2O:MeOH:IPA (3:5.5:5), 15° C.
  Solubility: <1000 µg/mL
[5]; H2O:MeOH:IPA (3:5.5:5), 45° C.
  Solubility: <1000 µg/mL
[5]; Heptane, 15° C.
  Solubility: <1000 µg/mL
[5]; Heptane, 45° C.
  Solubility: <1000 µg/mL
[5]; IPA, 15° C.
  Solubility: <1000 µg/mL
[5]; IPA, 45° C.
  Solubility: <1000 µg/mL
[5]; IPA:H2O (9:1), 15° C.
  Solubility: 1640 µg/mL
[5]; IPA:H2O (9:1), 45° C.
  Solubility: 2100 µg/mL
[5]; MeCN, 15° C.
  Solubility: <1000 µg/mL
[5]; MeCN, 45° C.
  Solubility: <1000 µg/mL
[5]; MeOH, 15° C.
  Solubility: ~1000 µg/mL
[5]; MeOH, 45° C.
  Solubility: 2730 µg/mL
[5]; MeOH:H2O (9:1), 15° C.
  Solubility: 9200 µg/mL
[5]; MeOH:H2O (9:1), 45° C.
  Solubility: 11200 µg/mL
[5]; TBME, 15° C.
  Solubility: 3000 µg/mL
[5]; TBME, 45° C.
  Solubility: 28900 µg/mL
[5]; THF:H2O (9:1), 15° C.
  Solubility: 2080 µg/mL
[5]; THF:H2O (9:1), 45° C.
  Solubility: 4120 µg/mL
[5]; Water, 15° C.
  Solubility: 30000 µg/mL
[5]; Water, 45° C.
  Solubility: >100000 µg/mL
[5]; fifteen solvents and solvent mixtures at 15 and 45° C.
  XRPD analysis of the precipitates after 48 hours slurries: no form transformations
[6]; 50° C. 2 hours, RT, 50° C. 48 hours
  Result (XRPD): Pattern 7A
[6]; dry ice-acetone 30 minutes, RT
  Result (XRPD): Pattern 7A
[6]; heated to 150° C. and brought to room temperature, cycle repeated three times
  Result (XRPD): Pattern 7A
[6]; vacuum oven 130° C. 2 hours, RT, 130° C. 48 hours
  Result (XRPD): Pattern 7A
[7]
  Flow character: Excellent (1-10)

## N=C(N)NCCC(=O)O.O=C(O)C(=O)O [β-GPA oxalate (1:1)]
[1]
  solid form by XRPD after the DVS experiment: retained their XRPD
[1]; listed as 1:1 oxalate salt
  solid form by XRPD after the DVS experiment: no form change
[1]; listed as 1:1 β-GPA oxalate
  solid form by XRPD after the DVS experiment: no form change
[8]; dry (45° C. under vacuum)
  Dry_XRPD pattern: Pattern 18A
[8]; dry conditions
  stability in dry conditions: stable
[8]; high humidity (RH >95%)
  Humid_XRPD pattern: Pattern 18A
[8]; high humidity conditions
  stability under high humidity conditions: stable
[8]; wet
  Wet_XRPD pattern: Pattern 18A
[9]; acetone:water (9:1)
  XRPD pattern after slurry: retain their XRPD pattern
[9]; acetonitrile
  XRPD pattern after slurry: retain their XRPD pattern
[9]; methanol
  XRPD pattern after slurry: retain their XRPD pattern
[9]; water (disproportionation test)
  XRPD pattern after slurry: retained their XRPD patterns
[9]; water (disproportionation test), listed as 1:1 β-GPA oxalate
  XRPD pattern after slurry: retained their XRPD pattern
[10]
  solid form stability (XRPD): retained their original XRPD pattern; also recorded: stable
[10]; listed as 1:1 oxalate salt
  solid form stability (XRPD): stable
Bulk and tapped density
  Bulk density: 0.505 g/cc
  Tapped density: 0.623 g/cc
[2]
  Carr's index: 18.7
  Hausner ratio: 1.23
  Flow character: Fair (16-20)
[3]; Disc pore size 12 mm
  Did solid pass?: No
[3]; Disc pore size 18 mm
  Did solid pass?: No
[3]; Disc pore size 24 mm
  Did solid pass?: No
[3]; Disc pore size 26 mm
  Did solid pass?: Yes
[3]; Disc pore size 28 mm
  Did solid pass?: Yes
[3]; Disc pore size 30 mm
  Did solid pass?: Yes
[3]; summary of density and Flodex measurements
  flow character from the experimental data: fair
[7]
  Flow character: Fair (16-20)
